Data on five compounds can be found in patent US6265413A, “Camptothecin compounds and a method of preparation thereof” (priority 1995, dated 2001).

The subject of one series is L1210 leukemia. Put plainly: Prolongation effects of life span against L1210-bearing mice. Type of series: in vivo, BDF1 mice. The note with it: for 30 days survivor / ILS(%) / Survival days MST / B.W. Change: i.p., days 1, 3, 5; for B.W. Change: day 1 to day 5. The method, then: Antitumor activities were measured through the experiments on prolongation effects of life span against L1210-bearing mice and tumor growth inhibitory effects against B16-bearing mice. To evaluate the antitumor activities on L1210 leukemia, a certain number of L1210 cells (in vitro) was intraperitoneally inoculated for propagation and the L1210 cells in ascites were harvested from animals sacrificed by cervical dislocation on 7th day after tumor was implanted.
(§1) Male BDF1 mice, weighing about 20 grams, were used. Animal rooms were controlled at 23±2° C. and 60±5% relative humidity, under HEPA filter, and maintained in specific pathogen free (SPF).
5×10^5 of L1210 leukemia cell, obtained in vitro form, were intraperitoneally inoculated in BDF1 mice for propagation. The L1210 tumor cells in ascites were aseptically harvested from BDF1 mice sacrificed by cervical dislocation on 7th day after tumor implantation.
The tumor cells were passaged at least three times prior to use in the test.
5×10^5 cell were intraperitoneally inoculated into BDF1 mice on day 0 and the sample ([…]) were intraperitoneally administration on days 1, 3 and 5. six mice were used for each experimental group.
Antitumor activities were evaluated by the mean survival time of a group of mice and also expressed by the ILS(%) value and the mean animal weights for day 1 and day 5.
Increased Life span (ILS)
ILS(%)={(MST of sample treated group/MST of solvent group)-1}×100

The next series deals with B16 melanoma. Type of series: in vivo, BDF1 mice. The note with it: for IR (%) on tumor size / IR (%) on tumor weight / Tumor weight day 20 / Tumor size day 8 / Tumor size day 12 / Tumor size day 16 / Tumor size day 20: days 8, 12, 16; for IR (%) on tumor size / IR (%) on tumor weight: day 20; for Tumor weight day 20: in g (unit assumed); for Tumor size day 8 / Tumor size day 12 / Tumor size day 16 / Tumor size day 20: in mm³ (unit assumed). The method, then: To investigate tumor growth inhibitory effects against B16 melanoma, a certain number of B16 cells(in vitro) was subcutaneously inoculated for propagation and tumor cells were resected from animals scrificed by cervical dislocation on 14th day after tumor was implanted.
as §1
10^6 of B16 melanoma cell, obtained in vitro form, were subcutaneously in BDF1 mice for propagation. The B16 melanomas were transfered on day 14. The fresh tumors except for necrotized center were aseptically resected from tumor-bearing mice sacrificed by cervical dislocation.
The tumor cells were passaged at least […] three times prior to use in the test.
1 g subcutaneously donor tumor to be subcutaneously was homogenized in cold sterilized saline to give a final concentration of 1 g/10 ml. The 1:10 tumor suspension is injected into all BDF1 mice subcutaneously using 0.2 ml/mouse.
The mice were subcutaneously implanted with such homogenized solution and 7 to 8th day after the tumor implantation, the mice having a certain size of tumors were selected for experiments. Each experimental group were administered with the sample (0.1 ml/10 g) on 8th, 12th and 16th day after the inoculation of tumor. Eight mice were used for each experimental group.
The size of the tumors was calculated by direct measurement of the diameter of the tumors, using the formula.
Where b is the largest diameter and a is the diameter perpendicular to b and growth curves were thus obtained. (FIG. 2)
The inhibition rate of tumor growth on the basis of tumor size was calculated according to the formula.
TWt is the mean tumor volume(weight) of sample-treated groups.
TWc is the mean tumor volume(weight) of control group.

The next series has as its system topoisomerase I. The note with it: background art; cited from earlier work.
The conditions of series [1]: background art; cited from earlier work.

SMILES strings stand for the structures. “Also recorded” adds a separate entry of the source. Read-outs that look alike come from different tables or passages of the source.

For the compound `CCC1(O)C(=O)OCc2c1cc1n(c2=O)Cc2c-1nc1ccccc1c2CCNC(C)C` (racemic) [Example 30, dl-7-[2-(N-isopropylamino)ethyl]camptothecin], the “ILS(%) and dose range, comparison in words” value with L1210 leukemia (compared with other compounds / camptothecin (FIG. 1)) was “better dose dependency and ILS(%) than other compound; also recorded: higher ILS(%) and wider range where the effect was siginificant”. In the series with L1210 leukemia (total dose 8.75 mg/kg), the 30 days survivor is 0/6, the “ILS(%)” value is listed as 58.7%, the “Survival days MST” value came out at 15.67 days and the “B.W. Change” value is on record as “+0.7 g”. Further, in the series on L1210 leukemia (total dose 10 mg/kg), the 30 days survivor is 0/6, the “ILS(%)” value came to 42%, the “Survival days MST” value was 13.00 days and the “B.W. Change” value was -0.71 g. In the series on L1210 leukemia (total dose 17.5 mg/kg), the 30 days survivor is recorded as 0/6, the “Survival days MST” value came to 17.75 days and the “B.W. Change” value is recorded as “+0.45 g”. In the series with L1210 leukemia (total dose 35 mg/kg), the 30 days survivor was 0/6, the “ILS(%)” value stood at 92.4%, the “Survival days MST” value came to 19.00 days and the “B.W. Change” value is -0.12 g. Further, in the series with L1210 leukemia (total dose 50 mg/kg), the 30 days survivor was 0/6, the “ILS(%)” value was determined as 119%, the “Survival days MST” value is on record as 20.00 days and the “B.W. Change” value is recorded as -0.57 g. In addition, in the series with L1210 leukemia (total dose 70 mg/kg), the 30 days survivor was 0/6, the “ILS(%)” value is given as 143%, the “Survival days MST” value is reported as 24.00 days and the “B.W. Change” value was -0.79 g. Further, in the series on L1210 leukemia (total dose 140 mg/kg), the 30 days survivor was 0/6, the “ILS(%)” value came out at 110%, the “Survival days MST” value was 20.75 days and the “B.W. Change” value was -0.93 g. In the series on B16 melanoma (35 mg/kg), the “IR (%) on tumor size” value is 27%, the “IR (%) on tumor weight” value stood at 40%, the “Tumor weight day 20” value was determined as 2.34 ± 0.44 and the “Tumor size day 8” value turned out to be 86.93 ± 11.34. In addition, in the series on B16 melanoma (35 mg/kg), the “Tumor size day 12” value is on record as 411.88 ± 71.52, the “Tumor size day 16” value was determined as 1234.65 ± 182.64 and the “Tumor size day 20” value stood at 3061.34 ± 752.34. For the same compound, in the series on B16 melanoma (70 mg/kg), the “IR (%) on tumor size” value amounted to 54.8%, the “IR (%) on tumor weight” value is reported as 56%, the “Tumor weight day 20” value is reported as 1.71 ± 0.18 and the “Tumor size day 8” value was 86.21. Also, in the series on B16 melanoma (70 mg/kg), the “Tumor size day 12” value is 320.06, the “Tumor size day 16” value is listed as 870.46 and the “Tumor size day 20” value is reported as 1897.88. In the series on B16 melanoma (140 mg/kg), the “IR (%) on tumor size” value is given as 67.72%, the “IR (%) on tumor weight” value turned out to be 71.6%, the “Tumor weight day 20” value is reported as 1.11 ± 0.21 and the “Tumor size day 8” value amounted to 86.94 ± 9.34. Moreover, in the series with B16 melanoma (140 mg/kg), the “Tumor size day 12” value worked out at 328.98 ± 76.57, the “Tumor size day 16” value stood at 695.75 ± 82.77 and the “Tumor size day 20” value came to 1353.91 ± 134.36. Also, the “antitumor activity, comparison in words” value in the series with B16 melanoma (ascites and solid type tumor, compared with camptothecin) was “better antitumor activity on ascites tumor and solid type tumor”. For the same compound, the “toxicity and safety margin, comparison in words” value in the series with B16 melanoma (mouse, in vivo) was “less toxicity and a wide range of safety margin”.
Regarding `CCC1(O)C(=O)OCc2c1cc1n(c2=O)Cc2c-1nc1ccccc1c2CCN(Cc1ccccc1)C(=O)OCc1ccccc1` (racemic) [Example 18, dl-7-[2-(N-benzyl-N-carbobenzyloxyamino)ethyl]camptothecin], in the series with L1210 leukemia (total dose 10 mg/kg), the 30 days survivor is listed as 0/6, the “ILS(%)” value is on record as 33%, the “Survival days MST” value is recorded as 13.00 days and the “B.W. Change” value was -0.25 g. In the series with L1210 leukemia (total dose 50 mg/kg), the 30 days survivor is reported as 0/6, the “ILS(%)” value was 64%, the “Survival days MST” value was 16.00 days and the “B.W. Change” value is -0.80 g.
On to `CCC1(O)C(=O)OCc2c1cc1n(c2=O)Cc2c-1nc1ccccc1c2CCNCc1ccccc1` (racemic) [Example 26, dl-7-[2-(N-benzylamino)ethyl]camptothecin], for which, in the series with L1210 leukemia (total dose 10 mg/kg), the 30 days survivor is on record as 0/6, the “ILS(%)” value came out at 72%, the “Survival days MST” value turned out to be 15.67 days and the “B.W. Change” value is listed as -0.09 g. In the series on L1210 leukemia (total dose 50 mg/kg), the 30 days survivor is listed as 0/6, the “ILS(%)” value is reported as 75%, the “Survival days MST” value was determined as 16.00 days and the “B.W. Change” value was -0.57 g.
With `CC[C@@]1(O)C(=O)OCc2c1cc1n(c2=O)Cc2cc3ccccc3nc2-1` [Camptothecin, camptothecin], in the series on B16 melanoma (10 mg/kg), the “IR (%) on tumor size” value is listed as 57.8%, the “IR (%) on tumor weight” value came to 59%, the “Tumor weight day 20” value is recorded as 1.61 ± 0.30 and the “Tumor size day 8” value came out at 85.95 ± 13.15. Moreover, in the series on B16 melanoma (10 mg/kg), the “Tumor size day 12” value is listed as 458.56 ± 53.87, the “Tumor size day 16” value is 1035.98 ± 129.36 and the “Tumor size day 20” value is reported as 1775.50 ± 300.91. Further, the “mode of action on topoisomerase I” value in the series with topoisomerase I was “specific mode of action to inhibit topoisomerase I; also recorded: binds covalently with topoisomerase I”. Further, in series [1], the “toxicity in clinical trial” value is on record as “severe toxicity”.
`CCc1c2c(nc3ccc(OC(=O)N4CCC(N5CCCCC5)CC4)cc13)-c1cc3c(c(=O)n1C2)COC(=O)[C@]3(O)CC` [CPT-11]: the “antineoplastic activity in clinical trial / treatment” value in series [1] is given as “excellent antineoplastic activities”.
